Data reported in patent US7067273B2, “Peptide substrates of a proteolytic ADAM33 polypeptide and assays using the same” (Schering Corporation, priority 2002, dated 2006).

Assays:
[1] = target: T1, proteolytic ADAM33 polypeptide (Homo sapiens, UniProt Q9BZ11); assay: FRET assay for inhibition of the proteolytic activity of a proteolytic ADAM33 polypeptide; type: biochemical
T1 construct: The presence of imidazole facilitated the separation of the prodomain from the catalytic domain; made in house; host or cells: Drosophila melanogaster S2 cells (pMT/Bip/V5-His-C, secreted)
T1 sequence (Q9BZ11 204-409): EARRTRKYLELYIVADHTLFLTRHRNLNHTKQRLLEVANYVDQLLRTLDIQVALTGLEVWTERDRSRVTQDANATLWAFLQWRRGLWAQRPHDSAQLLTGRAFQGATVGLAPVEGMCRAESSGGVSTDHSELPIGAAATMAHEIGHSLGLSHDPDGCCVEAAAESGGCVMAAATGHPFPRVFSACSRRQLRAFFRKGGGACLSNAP
Description: A FRET assay may also be used to determine the cleavage of a compound by a proteolytic ADAM33 polypeptide. At room temperature, in a total reaction volume of 100 μL per well in a 96 well plate, add 50 μL of 2× Assay Buffer (40 mM HEPES, pH 7.5, 1.0 M NaCl; 1× Assay Buffer being 20 mM HEPES, pH 7.5, 0.5 M NaCl), followed by 25 μL of 100 μM substrate, e.g., SEQ ID NO: 14 (K(Dabcyl)YEVAHQKLAE(Edans)K-OH), and lastly 25 μL of 40 nM a proteolytic ADAM33 polypeptide in Enzyme Dilution Buffer 40 mM HEPES, pH 7.5. The reaction starts after the enzyme is added and is assayed at room temperature for 15–20 minutes by reading the relative fluorescence unit.
For High throughput screening, the FRET assay is performed similarly to that stated above, but with Assay Buffer that is also composed of 0.2 mg/ml BSA (1× Assay Buffer being 20 mM HEPES, pH 7.5, 0.5 M NaCl, 0.2 mg/ml BSA). In addition, the substrate used has a fluorescent donor and an acceptor at either end of the peptide, e.g., SEQ ID NO: 18 ((Cy5Q)WEVAH*QKLAC(Cy3B)K). Lastly, the reaction is incubated at room temperature for 3 hours and then stopped by adding 10 μL EDTA (11 mM). To measure the proteolytic activity of the proteolytic ADAM33 polypeptide on the substrate, the endpoint (relative fluorescence unit) is read using the appropriate excitation and emission wavelengths (e.g., for Cy5Q and Cy3B, 540 nm and 580 nm, respectively). […]

[2] = target: T1, proteolytic ADAM33 polypeptide; assay: Proteolytic activity assay: cleavage of peptide substrates by a proteolytic ADAM33 polypeptide (HPLC); type: biochemical; conditions: fold versus SEQ ID NO: 8
Excerpt: The proteolytic activity assay consists of a substrate, preferably at a micromolar to submicromolar concentration, and a proteolytic ADAM33 polypeptide, preferably at a submicromolar concentration, in a benign buffered solution at pH 7–9, more preferably around pH 7.5–8.0. This assay may be set-up to monitor proteolytic activity of a proteolytic ADAM33 polypeptide continuously over a time span of minutes to hours in a 96-well or 384-well format. Alternatively, this assay may be set up to allow an elapse of time span of minutes to hours before the proteolytic activity is quenched and analyzed following acidification to under pH 4 or addition of an excess amount of zinc chelators (e.g., EDTA).
For example, an ADAM33 substrate derived from amyloid percursor protein to assay the proteolytic activity of a proteolytic ADAM33 polypeptide. The cleavage site in the above-mentioned substrate is indicated by a hyphen (i.e., the cleavage site is the scissile bond being between the second histidine and the adjacent glutamine). One particular set of assay conditions contains 25 nM of the proteolytic ADAM33 polypeptide and 25 μM substrate. […] The rate of reaction is measured over a defined time period (e.g., for 1 hour at room temperature) and then stopped. Product formation can be quantified at 214 nm by HPLC using a reverse phase column to separate the substrate from the products. […]

| inhibition of the proteolytic activity of a proteolytic ADAM33 polypeptide (in words) [1] | cleavage rate relative to the 10-mer truncated form of APP28 (SEQ ID NO: 8) [2] | Molecule |
| --- | --- | --- |
| identified as an inhibitor |  | CNC(=O)[C@@H](NC(=O)[C@H](CC(C)C)[C@H](O)C(=O)NO)C(C)(C)C [marimastat] |
|  | seventeen times greater | Ac-Tyr-Glu-Val-Ala-His-Gln-Lys-Leu-Val-Phe-NH2 (Ac-YEVAHQKLVF-NH2) [SEQ ID NO: 13, peptide substrate, code P5P5′, Ac-YEVAH*QKLVF-NH2] |
